According to PMC13242511, “Disrupting Notch signalling by a small molecule inhibiting dihydroorotate dehydrogenase activity” (Scientific Reports, 2026):

Experiments:
Format in all cases: cell-based
MDA-MB-231 cells = assay: Three dose response gene expression analysis (qRT-PCR); conditions: 0.1, 1 and 10 µM, 24 h
Description: (§1) Total RNA from cell lines was isolated using the RNeasy Mini kit (cat #74104, Qiagen), according to the manufacturer’s instructions. qRT-PCR was performed as described elsewhere[51] with some minor modifications: RNA was reverse transcribed to cDNA using iScript Reverse Transcription Supermix (cat # 1708841, Bio-rad). cDNA was then diluted 1:5 in nuclease free H20. qRT-PCR was performed on a C1000 Touch thermal cycler (Bio-rad) and gene expression was detected with SsoAdvanced Universal SYBR Green Supermix (cat # 1725274, Bio-rad). Gene expression was determined by normalizing to GAPDH mRNA expression levels and fold expression change was calculated using the ΔΔCT method (ΔΔCT = ΔCt sample − Δct control). Primers used in qPCR are shown in Supplemental Table 9.
(§2) Adherent breast cancer cells were seeded in 24-well cell culture plates (ThermoFisher, Nunc, Delta surface, cat #144530) and T-ALL cells growing in suspension (Jurkat, RPMI-8402) were seeded in non-adherent 24-well plates (ThermoFisher, Nunc, cat […]). 60.000 cells were seeded and treated with 0.1, 1 and 10 µM of each compound. […] Cells were harvested 24 h post treatment and RNA isolation and gene expression analysis (qRT-PCR) was performed as described above.

[1] = test system: T-ALL cells (Jurkat, RPMI-8402); assay: as above; conditions: T-ALL cells; 0.1, 1 and 10 µM, 24 h
Description: as §1, §2

γ-secretase complex = γ-secretase complex (Homo sapiens, UniProt P49768); assay: APP-C99 counter assay (GSI reporter assay); parameters: AUC APP: scale not given here
In short: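 γ-secretase activity reported via APP cleavage driving firefly luciferase, normalized to renilla. After 24 h transfection then 24 h compound exposure, signals were read (0.1 s integration). Triplicate dose–responses fitted by variable-slope four-parameter model for IC50; area under curve also derived.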

C2C12 cells = assay: C2C12 myogenic assay; parameters: key to myogenic assay: + indicates that the compound had an effect; -: − indicates that there was no significant effect in the respective assay
From the text: To corroborate their status as Notch inhibitors, we tested four of the five compounds (A, C, D, E) in an orthogonal assay for Notch function. Notch signalling plays an important role in myogenic differentiation, and blocking Notch signalling promotes myogenic differentiation in the myoblast cell line C2C12[27] (Fig. 5A). C2C12 cells can be maintained as myoblasts but upon serum starvation spontaneously differentiate to MYH4-positive multinucleated myotubes, a process which is accelerated by Notch blockade.
8000 C2C12 cells were seeded on gelatin (0.1%, Sigma-Aldrich, cat #G2500) coated cover slides (BD Bioscience) and cultivated in proliferation medium. For gelatin coating, 8-well cover slide chambers (BD Bioscience) were incubated for 60 min with 0.1% gelatin in PBS. The remaining liquid was aspirated, and gelatin was allowed to dry for 24 h. Cover slides were stored at 4 °C until use. Upon reaching 85% confluence cell culture medium was exchanged to differentiation medium to enhance differentiation into myocytes/myotubes. Cells were then treated with 10 µM of the respective compound for five days and DMSO-treated cells served as a base-line control. Next, cells were washed with 1 × cold PBS (ThermoFisher, cat #10010023) fixed with 4% paraformaldehyde (PFA, Sigma-Aldrich, cat #1.00496) in PBS for 10 min at room temperature and washed again with 1 × PBS. Fixed cells were either stored at 4 °C in PBS or directly processed for immunocytochemistry staining: For immunocytochemistry, cells were permeabilized for 10 min in 0.1% TritonX-100 / PBS, then washed in PBS and unspecific bindings sites were blocked in protein free blocking solution (DAKO, cat # × 0909) for 30 min at room temperature, followed by two times washing in PBS. Then, cells were incubated with primary antibody MYH4 (ThermoFisher) in blocking solution and 0.1% TritonX-100 in PBS for 1 h at room temperature. Next, cells were washed three times in PBS and incubated with secondary Alexa fluorophore coupled antibody (Invitrogen) in a 1:400 dilution. Labeling of F-actin filaments was conducted by phalloidin-TRITC (Sigma-Aldrich, cat # P1951) in a 1:2500 dilution. Cells were washed three times in PBS and incubated with DAPI (BD Bioscience cat # 564907) for 5 min at room temperature to stain DNA/nuclei. Finally, slides were fixed with mounting medium (ProLong Antifade mounting medium, ThermoFisher, cat #P36934). Bright field and immunocytochemistry images were taken using the SP8 LSM (Leica) at different magnifications and images were recorded as Z-stacks. Images were processed using the FijI (ImageJ) software. As controls, wells with and without differentiation medium were also stained to set the baseline and contrast the differences and stainings of cells with only secondary antibodies were used as negative controls to assess cross-reactivity and background staining. For calculating the MYH4 median fluorescence intensity (MFI) images have been converted into 8-bit greyscale and a standard color threshold was applied (ImageJ). Next, MFI signals per area were measured using ImageJ and divided by the median background intensity (MBI). The nuclei fusion index was calculated as the ratio of nuclei fused per area divided by the total number of nuclei in the field. A minimum of three images has been recorded for the calculations, and two replicate experiments were conducted. For calculations of MFI and fusion index see Supplemental Table 5.

[2] = 10 µM, five days, Fig. 5, equals mean of the two '% of control' values of the 4th table

## NC(=O)c1c(NC(=O)NCc2cccnc2)sc2c1CCC2 [compound D]
MDA-MB-231 cells
  HES1 expression: downregulated
  HES4 expression: reduced
  transcript levels of the Notch ligand Jagged1: reduced
[1]
  HES1 and c-MYC expression: dose-dependent downregulation
γ-secretase complex; 14p APP assay DR, bottom constrained to Emax of positive control LY-411575, listed as CBK307578
  Hill-slope: 0.0595
γ-secretase complex; 24 h, 10µM, APP-C99 counter assay, read-out: 3p-DR in % of DMSO counter
  remaining activity at 10 µM: 119%
γ-secretase complex; 24 h, 25µM, APP-C99 counter assay, read-out: 3p-DR in % of DMSO counter
  remaining activity at 25 µM: 134%
γ-secretase complex; 24 h, 1,25µM, APP-C99 counter assay, read-out: 3p-DR in % of DMSO counter
  remaining activity at […]: 78%
γ-secretase complex; area under the 14-point dose-response curve, replicates averaged
  AUC APP: 449.6
C2C12 cells; 10 µM, five days
  expression of the differentiation marker MYH4: did not produce elevated MYH4 levels
C2C12 cells; [2]
  MYH4 (MFI): 108.7
  fusion index, % of DMSO control: 153.2
C2C12 cells; summary Fig. 8E
  myogenic assay: -
